# Earlier results in article PMC9099121, “Population pharmacokinetic and exposure‐response analyses from ALTA‐1L: Model‐based analyses supporting the brigatinib dose in ALK‐positive NSCLC” (Clinical and Translational Science, 2022).
# Test system: ALK-rearranged advanced NSCLC
# Design: method as in PMID 31020351
# Details: time-dependent exposure metric; 95% CI: 0.92–1.17; nonsignificant; cited from earlier work
smiles,measurement,value
Cc1cc(Nc2ncc(Cl)c(Nc3ccccc3S(=O)(=O)C(C)C)n2)c(OC(C)C)cc1C1CCNCC1 [ceritinib],"HR, exposure versus risk of disease progression",1.04
